Measured values reported in patent publication US20260022142A1, “MACROCYCLIC IMMUNOMODULATORS” (Bristol-Myers Squibb Company, priority 2022, published 2026).
Bridge positions count the residues as written; N and C are the ends. Square brackets hold non-standard residues; d marks the D form. Peptide text beside a SMILES is read from it. * marks the point of attachment. Bip = N[C@@H](Cc1ccc(-c2ccccc2)cc1)C(=O)O; Phe(3-Me) = Cc1cccc(C[C@H](N)C(=O)O)c1; Val(3-OH) = CC(C)(O)[C@H](N)C(=O)O; Cha = N[C@@H](CC1CCCCC1)C(=O)O; Cit = NC(=O)NCCC[C@H](N)C(=O)O; Carboxymethyl = O=C(O)C*; Orn = NCCC[C@H](N)C(=O)O; Aun = NCCCCCCCCCCC(=O)O; Dab = NCC[C@H](N)C(=O)O; Dap = NC[C@H](N)C(=O)O

Target: T1, PD-1/PD-L1 interaction (PE-labeled human PD-L1-Ig binding to Jurkat cell line over-expressing human PD-1) (Homo sapiens, UniProt Q15116)
T1 construct: expressed in transfected cells; host or cells: Jurkat
T1 sequence (Q15116 25-288): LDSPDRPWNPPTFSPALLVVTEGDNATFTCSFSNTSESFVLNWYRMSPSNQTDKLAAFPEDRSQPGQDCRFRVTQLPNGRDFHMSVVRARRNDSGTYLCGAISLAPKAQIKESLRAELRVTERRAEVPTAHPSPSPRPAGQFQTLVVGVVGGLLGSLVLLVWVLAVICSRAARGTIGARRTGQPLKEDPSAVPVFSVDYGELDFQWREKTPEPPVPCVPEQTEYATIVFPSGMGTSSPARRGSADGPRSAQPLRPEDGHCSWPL
Test: Jurkat-PD-1 Cell Binding High-Content Screening Assay (CBA)
Format: cell-based
Details: Jurkat cell line over-expressing human PD-1; PE-labeled PD-L1-Ig 20 nM final; read-out: Jurkat hPD1-PDL1 IC50
Outline: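 First, compound is added to PD-1-expressing Jurkat cells in serum-containing DMEM and left 2 h at 37° C. Next, PE-conjugated PD-L1-Ig is introduced at 20 nM final concentration for 1 hour. Finally, cells are fixed in 4% paraformaldehyde with Hoechst 33342, washed and imaged.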

Row | Compound | IC50
1 | Cc1cccc(C[C@@H]2NC(=O)[C@H](CC(=O)O)NC(=O)[C@H](Cc3ccc(OCC(=O)O)cc3)NC(=O)[C@H](CN)NC(=O)CSC[C@@H](C(=O)N[C@@H](CCN)C(=O)NCCCCCCCCCCC(=O)O)NC(=O)[C@H](CCCN)NC(=O)[C@H](C(C)C)NC(=O)[C@H](CC3CCCCC3)NC(=O)[C@H](CCN)NC(=O)[C@@H](CC(C)C)NC(=O)[C@H](CCCN)NC(=O)[C@H](CCCNC(N)=O)NC(=O)[C@H](Cc3ccc(-c4ccccc4)cc3)NC(=O)[C@H](Cc3ccc(OCC(=O)O)cc3)NC2=O)c1 [Compound 2844] ({CH2CO}-[Dap]Y(Carboxymethyl)D[Phe(3-Me)]Y(Carboxymethyl)[Bip][Cit][Orn][dL][Dab][Cha]V[Orn]C[Dab][Aun]-OH; thioether N-14) | 25.5 nM
2 | Cc1cccc(C[C@@H]2NC(=O)[C@H](CC(=O)O)NC(=O)[C@H](Cc3ccc(OCC(=O)O)cc3)NC(=O)[C@H](CN)NC(=O)CSC[C@@H](C(=O)N[C@@H](CCN)C(=O)NCCCCCCCCCCC(=O)O)NC(=O)[C@H](CCCN)NC(=O)[C@H](C(C)C)NC(=O)[C@H](CC3CCCCC3)NC(=O)[C@H](CCN)NC(=O)[C@@H](CC(C)C)NC(=O)[C@H](CCCN)NC(=O)[C@H](CCCNC(N)=O)NC(=O)[C@H](Cc3ccc(-c4ccccc4)cc3)NC(=O)[C@H](C(C)C)NC2=O)c1 [Compound 2845] ({CH2CO}-[Dap]Y(Carboxymethyl)D[Phe(3-Me)]V[Bip][Cit][Orn][dL][Dab][Cha]V[Orn]C[Dab][Aun]-OH; thioether N-14) | 14.2 nM
3 | Cc1cccc(C[C@@H]2NC(=O)[C@H](CC(=O)O)NC(=O)[C@H](Cc3ccc(OCC(=O)O)cc3)NC(=O)[C@H](CN)NC(=O)CSC[C@@H](C(=O)N[C@@H](CCN)C(=O)NCCCCCCCCCCC(=O)O)NC(=O)[C@H](CCCN)NC(=O)[C@H](C(C)C)NC(=O)[C@H](CC3CCCCC3)NC(=O)[C@H](CCN)NC(=O)[C@@H](CC(C)C)NC(=O)[C@H](CCCN)NC(=O)[C@H](CCCNC(N)=O)NC(=O)[C@H](Cc3ccc(-c4ccccc4)cc3)NC(=O)[C@H](Cc3ccc(O)cc3)NC2=O)c1 [Compound 2846] ({CH2CO}-[Dap]Y(Carboxymethyl)D[Phe(3-Me)]Y[Bip][Cit][Orn][dL][Dab][Cha]V[Orn]C[Dab][Aun]-OH; thioether N-14) | 12.8 nM
4 | Cc1cccc(C[C@@H]2NC(=O)[C@H](CC(=O)O)NC(=O)[C@H](Cc3ccc(OCC(=O)O)cc3)NC(=O)[C@H](CN)NC(=O)CSC[C@@H](C(=O)N[C@@H](CCN)C(=O)NCCCCCCCCCCC(=O)O)NC(=O)[C@H]([C@@H](C)O)NC(=O)[C@H](C(C)C)NC(=O)[C@H](CC3CCCCC3)NC(=O)[C@H](CCN)NC(=O)[C@@H](CC(C)C)NC(=O)[C@H](CCCN)NC(=O)[C@H](CCC(N)=O)NC(=O)[C@H](Cc3ccc(-c4ccccc4)cc3)NC(=O)[C@H](C(C)C)NC2=O)c1 [Compound 2847] ({CH2CO}-[Dap]Y(Carboxymethyl)D[Phe(3-Me)]V[Bip]Q[Orn][dL][Dab][Cha]VTC[Dab][Aun]-OH; thioether N-14) | 20.5 nM
5 | Cc1cccc(C[C@@H]2NC(=O)[C@H](CC(=O)O)NC(=O)[C@H](Cc3ccc(OCC(=O)O)cc3)NC(=O)[C@H](CCCNC(=N)N)NC(=O)CSC[C@@H](C(=O)N[C@@H](CCN)C(=O)NCCCCCCCCCCC(=O)O)NC(=O)[C@H](CCCN)NC(=O)[C@H](C(C)(C)O)NC(=O)[C@H](CC3CCCCC3)NC(=O)[C@H](CCN)NC(=O)[C@@H](CC(C)C)NC(=O)[C@H](CCCN)NC(=O)[C@H](Cc3ccc(OCC(=O)O)cc3)NC(=O)[C@H](Cc3ccc(-c4ccccc4)cc3)NC(=O)[C@H](Cc3ccc(OCC(=O)O)cc3)NC2=O)c1 [Compound 2849] ({CH2CO}-RY(Carboxymethyl)D[Phe(3-Me)]Y(Carboxymethyl)[Bip]Y(Carboxymethyl)[Orn][dL][Dab][Cha][Val(3-OH)][Orn]C[Dab][Aun]-OH; thioether N-14) | 5 nM
6 | Cc1cccc(C[C@@H]2NC(=O)[C@H](CC(=O)O)NC(=O)[C@H](Cc3ccc(OCC(=O)O)cc3)NC(=O)[C@H](CCCNC(=N)N)NC(=O)CSC[C@@H](C(=O)N[C@@H](CCCCN)C(=O)NCCCCCCCCCCC(=O)O)NC(=O)[C@H](CN)NC(=O)[C@H](C(C)(C)O)NC(=O)[C@H](CC3CCCCC3)NC(=O)[C@H](CCN)NC(=O)[C@@H](CC(C)C)NC(=O)[C@H](CCCN)NC(=O)[C@H](Cc3ccc(OCC(=O)O)cc3)NC(=O)[C@H](Cc3ccc(-c4ccccc4)cc3)NC(=O)[C@H](Cc3ccc(OCC(=O)O)cc3)NC2=O)c1 [Compound 2850] ({CH2CO}-RY(Carboxymethyl)D[Phe(3-Me)]Y(Carboxymethyl)[Bip]Y(Carboxymethyl)[Orn][dL][Dab][Cha][Val(3-OH)][Dap]CK[Aun]-OH; thioether N-14) | 30.4 nM
7 | Cc1cccc(C[C@@H]2NC(=O)[C@H](CC(=O)O)NC(=O)[C@H](Cc3ccc(OCC(=O)O)cc3)NC(=O)[C@H](CCCNC(=N)N)NC(=O)CSC[C@@H](C(=O)N[C@@H](CO)C(=O)N[C@@H](CO)C(=O)NCCCCCCCCCCC(=O)O)NC(=O)[C@H]([C@@H](C)O)NC(=O)[C@H](C(C)C)NC(=O)[C@H](CC3CCCCC3)NC(=O)[C@H](CCN)NC(=O)[C@@H](CC(C)C)NC(=O)[C@H](CCCN)NC(=O)[C@H](CCCNC(N)=O)NC(=O)[C@H](Cc3ccc(-c4ccccc4)cc3)NC(=O)[C@H](C(C)C)NC2=O)c1 [Compound 2851] ({CH2CO}-RY(Carboxymethyl)D[Phe(3-Me)]V[Bip][Cit][Orn][dL][Dab][Cha]VTCSS[Aun]-OH; thioether N-14) | 21.3 nM
8 | Cc1cccc(C[C@@H]2NC(=O)[C@H](CC(=O)O)NC(=O)[C@H](Cc3ccc(OCC(=O)O)cc3)NC(=O)[C@H](CN)NC(=O)CSC[C@@H](C(=O)N[C@@H](CO)C(=O)N[C@@H](CO)C(=O)NCCCCCCCCCCC(=O)O)NC(=O)[C@H]([C@@H](C)O)NC(=O)[C@H](C(C)C)NC(=O)[C@H](CC3CCCCC3)NC(=O)[C@H](CCN)NC(=O)[C@@H](CC(C)C)NC(=O)[C@H](CCCN)NC(=O)[C@H](CCCNC(N)=O)NC(=O)[C@H](Cc3ccc(-c4ccccc4)cc3)NC(=O)[C@H](C(C)C)NC2=O)c1 [Compound 2852] ({CH2CO}-[Dap]Y(Carboxymethyl)D[Phe(3-Me)]V[Bip][Cit][Orn][dL][Dab][Cha]VTCSS[Aun]-OH; thioether N-14) | 21 nM
9 | Cc1cccc(C[C@@H]2NC(=O)[C@H](CC(=O)O)NC(=O)[C@H](Cc3ccc(OCC(=O)O)cc3)NC(=O)[C@H](CN)NC(=O)CSC[C@@H](C(=O)N[C@@H](CCN)C(=O)N[C@@H](CO)C(=O)N[C@@H](CO)C(=O)NCCCCCCCCCCC(=O)O)NC(=O)[C@H]([C@@H](C)O)NC(=O)[C@H](C(C)C)NC(=O)[C@H](CC3CCCCC3)NC(=O)[C@H](CCN)NC(=O)[C@@H](CC(C)C)NC(=O)[C@H](CCCN)NC(=O)[C@H](CCCNC(N)=O)NC(=O)[C@H](Cc3ccc(-c4ccccc4)cc3)NC(=O)[C@H](C(C)C)NC2=O)c1 [Compound 2853] ({CH2CO}-[Dap]Y(Carboxymethyl)D[Phe(3-Me)]V[Bip][Cit][Orn][dL][Dab][Cha]VTC[Dab]SS[Aun]-OH; thioether N-14) | 65.5 nM
10 | Cc1cccc(C[C@@H]2NC(=O)[C@H](CC(=O)O)NC(=O)[C@H](Cc3ccc(OCC(=O)O)cc3)NC(=O)[C@H](CCCNC(=N)N)NC(=O)CSC[C@@H](C(=O)N[C@@H](CCN)C(=O)NCCCCCCCCCCC(=O)O)NC(=O)[C@H]([C@@H](C)O)NC(=O)[C@H](C(C)C)NC(=O)[C@H](CC3CCCCC3)NC(=O)[C@H](CCN)NC(=O)[C@@H](CC(C)C)NC(=O)[C@H](CCCN)NC(=O)[C@H](CCC(N)=O)NC(=O)[C@H](Cc3ccc(-c4ccccc4)cc3)NC(=O)[C@H](Cc3ccc(OCC(=O)O)cc3)NC2=O)c1 [Compound 2854] ({CH2CO}-RY(Carboxymethyl)D[Phe(3-Me)]Y(Carboxymethyl)[Bip]Q[Orn][dL][Dab][Cha]VTC[Dab][Aun]-OH; thioether N-14) | 16.8 nM
11 | Cc1cccc(C[C@@H]2NC(=O)[C@H](CC(=O)O)NC(=O)[C@H](Cc3ccc(OCC(=O)O)cc3)NC(=O)[C@H](CCCNC(=N)N)NC(=O)CSC[C@@H](C(=O)N[C@@H](CCCN)C(=O)NCCCCCCCCCCC(=O)O)NC(=O)[C@H](CCC(N)=O)NC(=O)[C@H](C(C)C)NC(=O)[C@H](CC3CCCCC3)NC(=O)[C@H](CCN)NC(=O)[C@@H](CC(C)C)NC(=O)[C@H](CCN)NC(=O)[C@H](Cc3ccc(OCC(=O)O)cc3)NC(=O)[C@H](Cc3ccc(-c4ccccc4)cc3)NC(=O)[C@H](Cc3ccc(OCC(=O)O)cc3)NC2=O)c1 [Compound 2855] ({CH2CO}-RY(Carboxymethyl)D[Phe(3-Me)]Y(Carboxymethyl)[Bip]Y(Carboxymethyl)[Dab][dL][Dab][Cha]VQC[Orn][Aun]-OH; thioether N-14) | 19.6 nM
12 | Cc1cccc(C[C@@H]2NC(=O)[C@H](CC(=O)O)NC(=O)[C@H](Cc3ccc(OCC(=O)O)cc3)NC(=O)[C@H](CN)NC(=O)CSC[C@@H](C(=O)N[C@@H](CCCN)C(=O)NCCCCCCCCCCC(=O)O)NC(=O)[C@H](CCC(=O)O)NC(=O)[C@H](C(C)C)NC(=O)[C@H](CC3CCCCC3)NC(=O)[C@H](CCN)NC(=O)[C@@H](CC(C)C)NC(=O)[C@H](CCN)NC(=O)[C@H](Cc3ccc(OCC(=O)O)cc3)NC(=O)[C@H](Cc3ccc(-c4ccccc4)cc3)NC(=O)[C@H](Cc3ccc(OCC(=O)O)cc3)NC2=O)c1 [Compound 2856] ({CH2CO}-[Dap]Y(Carboxymethyl)D[Phe(3-Me)]Y(Carboxymethyl)[Bip]Y(Carboxymethyl)[Dab][dL][Dab][Cha]VEC[Orn][Aun]-OH; thioether N-14) | 19.7 nM
13 | Cc1cccc(C[C@@H]2NC(=O)[C@H](CC(=O)O)NC(=O)[C@H](Cc3ccc(OCC(=O)O)cc3)NC(=O)[C@H](CN)NC(=O)CSC[C@@H](C(=O)N[C@@H](CCCN)C(=O)NCCCCCCCCCCC(=O)O)NC(=O)[C@H](CCC(N)=O)NC(=O)[C@H](C(C)C)NC(=O)[C@H](CC3CCCCC3)NC(=O)[C@H](CCN)NC(=O)[C@@H](CC(C)C)NC(=O)[C@H](CCN)NC(=O)[C@H](Cc3ccc(OCC(=O)O)cc3)NC(=O)[C@H](Cc3ccc(-c4ccccc4)cc3)NC(=O)[C@H](Cc3ccc(OCC(=O)O)cc3)NC2=O)c1 [Compound 2857] ({CH2CO}-[Dap]Y(Carboxymethyl)D[Phe(3-Me)]Y(Carboxymethyl)[Bip]Y(Carboxymethyl)[Dab][dL][Dab][Cha]VQC[Orn][Aun]-OH; thioether N-14) | 35 nM
